# Patent US8003096B2, “Means and methods for the recruitment and identification of stem cells” (Vlaams Interuniversitair Instituut voor Biotechnologie VZW, priority 2003, dated 2011)
# What was measured:
# [1] = type: in vivo, mouse
# Experimental: To study the role of the plasminogen proteinase system with its plasminogen activators tPA and uPA, and active plasmin in stem/progenitor cell mobilization, mice lacking plasminogen (Plg^−/−), tPA (tPA^−/−), uPA (uPA^−/−) and both activators (tPA^−/−uPA^−/−) were used.^(17, 18) Age- and sex-matched mice were kept in IVC cages. Mobilization was induced either via a single sublethal injection i.v. of the myeloablative agent 5-fluorouracil (5-FU, 200-250 mg/kg), or via administration s.c. of recombinant human G-CSF (Filgrastim, Amgen, 200 μg/kg/d) for five consecutive days.^(12) Peripheral blood (PB) samples were obtained by retro-orbital bleeding under light anesthesia. Full blood counts were determined on the Abbott Cell Dyn 1300 hemocytometer. The number of mobilized hematopoietic progenitor cells (HPCs) in the circulation was determined via methylcellulose-based CFU-C assays (MethoCult, Stem Cell Technologies), per 10^5 peripheral blood mononuclear cells (PB MNCs).^(12) The number of mobilized hematopoietic stem cells (HSCs) in the circulation was quantified via splenic colony-forming assays (CFU-S), and evaluated for long-term engraftment via transplantation into lethally irradiated syngeneic wild-type recipients (9.5 Gy total body irradiation). […]
# Wild-type mice and mice lacking Plg, both tPA and uPA, tPA, uPA, uPAR, PAI-1, α2AP, MMP-2 (kind gift from S. Itohara), MMP-3 (kind gift from J. Mudgett), MMP-9, MMP-12 (kind gift from S. Shapiro), and TIMP-1 (obtained by courtesy of P. Soloway) were used, and housed in barrier cages (individually ventilated) (Heymans et al. (1999), Nat. Med. 5:1135-42). […] Peripheral blood was repetitively sampled by retro-orbital puncture under light anesthesia, and full blood counts (EDTA buffered) were determined on a hemocytometer (Abbott Cell Dyn 1300). Peripheral blood smears were stained using Giemsa-May-Grunwald and at least 200 cells were analyzed. […]
# [2] = system: sKitL; experiment: sKitL levels in BM plasma (ELISA); type: in vivo, mouse; conditions: WT mice
# Experimental: BM extracellular fluid (BM plasma) from mice was obtained as described previously (Petit et al. (2002), Nat. Immunol. 3:687-94). BM plasma from healthy volunteers was obtained by using the first 10 ml of collection via puncture in the iliac crest under local anesthesia, and immediate anti-coagulation with EDTA. Protein extraction on BM cells was performed as described (Heymans et al. (1999), Nat. Med. 5:1135-42). Murine sKitL and SDF1α protein levels were quantified using commercial available ELISA (R&D Systems, Abingdon, UK). Murine plasminogen, and murine and human suPAR were quantified by home-made ELISA (Heymans et al. (1999), Nat. Med. 5:1135-42; Sier et al. (2004), Thromb. Haemost. 91:403-11). Lyophilized pertussis toxin was obtained from List Laboratories. MMP-2, MMP-9, and MMP-12 activities were measured using gelatin-zymography, uPA and MMP-3 activities were measured using casein-zymography, as described previously (Heymans et al. (1999), Nat. Med. 5:1135-42). Samples from gene-deficient mice were used as negative controls. Plasmin activity of BM plasma or cells (pericellular activity) was measured using substrate colorimetry (S2403), as described previously (Heymans et al. (1999), Nat. Med. 5:1135-42). Fibrinolytic activity was measured using a modified fluorescent-based in vitro clot lysis assay (Heymans et al. (1999), Nat. Med. 5:1135-42). Western blotting was performed on non-reduced samples, which were neutralized with a cocktail of protease inhibitors (Complete Inhibitor, Roche). ECM components/fragments were detected with antibodies against mouse fibronectin and laminin (Sigma), and human D1D2D3 and D2D3 (Andolfo et al. (1999), Thromb. Haemost. 88:298-306), secondary HRP-labeled antibodies (DAKO), and ECL detection system (Amersham Pharmacia).
smiles,measurement,setting,value
"O=c1[nH]cc(F)c(=O)[nH]1 [5-FU, 5-fluorouracil]",mice that died,"[1]; Plg−/− or tPA−/−uPA−/− mice, sublethal dose",up to 75%
same,mice that did not survive,"[1]; WT mice, sublethal dose",10%
same,"time to recovery from drop in WBC, RBC and platelet counts","[1]; mouse, in vivo",2.5-3 weeks
same,elevation of sKitL levels in the BM plasma,[2]; seven days after treatment,14 fold
same,elevation of sKitL levels in the BM plasma,[2]; ten days after treatment,2.5 fold
